What is called IC50 is the midpoint of a concentration-inhibition curve.

This passage reports IC50 results from patent US20240368154A1 (GENOSCO Inc., priority 2023, published 2024).

Structures can show the parent of a compound that is named as a salt.

For assay [1], the target named is T1, Recombinant ROCK1 (amino acids 1-477) (Homo sapiens, UniProt Q13464).
T1 construct: Recombinant ROCK1 (amino acids 1-477)
Description: ROCK inhibition assay, LANCE Ultra TR-FRET kinase assay. The assay is classed as biochemical. The settings on record: at Km of ATP (table title), method: 1 mM ATP, 50 nM ULight-CREBtide substrate, 1 hour, room temperature. Here is the method:
(§1) Kinase IC50 was determined through an in vitro assay based on LANCE Ultra TR-FRET (Time-Resolved Fluorescence Resonance Energy Transfer) homogeneous technologies method (Perkin Elmer). Recombinant ROCK1 (amino acids 1-477) and ROCK2 (amino acids 5-554) proteins were purchased from Carna Biosciences and SignalChem. Compound activities were measured by Envision and IC50s were calculated. The assays were performed in white LUMITRAC™ 200 96 well half-area microplates from Greiner Bio-One. The kinase reaction buffer consisted of 50 mM HEPES pH 7.5, 1 mM EGTA, 10 mM MgCl2, 2 mM DTT and 0.01% Tween-20. Kinases were incubated with 50 nM (ULight-CREBtide) substrate in the presence of 1 mM (ROCK1) or 1 mM (ROCK2) of ATP. The kinase reaction was carried out for 1 hour before addition of a stopping buffer to a final of 10 mM EDTA and 0.6 nM of LANCE Ultra Europium anti-phospho-CREB (Ser133) antibody (PerkinElmer TRF0200) in LANCE detection buffer. All assay incubations were performed at room temperature, and the microplates were sealed with polyester film during that time. The reaction was incubated for 1 hour, and the signal was read in Envision in TR-FRET mode (excitation at 320 nm and emission at 615/665 nm).
(§2) As used herein, a way to describe potency of inhibitory activity (nM) is a value of inhibitory activity at 50% (IC50).
A general note: Time-resolved FRET reads energy transfer from a long-lived donor to a nearby acceptor.

In assay [2] the target is T2, Recombinant ROCK2 (amino acids 5-554) (Homo sapiens, UniProt O75116).
T2 construct: ROCK2 (amino acids 5-554)
T2 sequence (O75116 5-554): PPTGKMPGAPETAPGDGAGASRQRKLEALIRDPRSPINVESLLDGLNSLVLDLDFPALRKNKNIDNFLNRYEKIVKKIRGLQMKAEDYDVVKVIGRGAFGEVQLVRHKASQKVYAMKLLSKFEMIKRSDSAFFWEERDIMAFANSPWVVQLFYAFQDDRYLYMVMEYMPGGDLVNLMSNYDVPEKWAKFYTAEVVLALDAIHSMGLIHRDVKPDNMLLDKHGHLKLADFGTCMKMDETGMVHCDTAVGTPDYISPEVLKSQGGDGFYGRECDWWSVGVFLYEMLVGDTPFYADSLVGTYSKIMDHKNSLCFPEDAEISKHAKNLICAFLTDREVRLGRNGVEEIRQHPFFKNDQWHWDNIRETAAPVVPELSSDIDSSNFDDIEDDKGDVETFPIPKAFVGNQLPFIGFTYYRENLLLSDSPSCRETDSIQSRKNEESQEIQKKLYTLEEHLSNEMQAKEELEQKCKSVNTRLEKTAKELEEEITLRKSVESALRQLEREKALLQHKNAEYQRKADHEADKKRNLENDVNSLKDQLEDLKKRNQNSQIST
Described as above. The settings on record: at Km of ATP (table title), method: 1 mM ATP, 50 nM ULight-CREBtide substrate, 1 hour, room temperature. The assay is classed as biochemical. The method, then: as §1, §2

T1 sequence (Q13464 1-477): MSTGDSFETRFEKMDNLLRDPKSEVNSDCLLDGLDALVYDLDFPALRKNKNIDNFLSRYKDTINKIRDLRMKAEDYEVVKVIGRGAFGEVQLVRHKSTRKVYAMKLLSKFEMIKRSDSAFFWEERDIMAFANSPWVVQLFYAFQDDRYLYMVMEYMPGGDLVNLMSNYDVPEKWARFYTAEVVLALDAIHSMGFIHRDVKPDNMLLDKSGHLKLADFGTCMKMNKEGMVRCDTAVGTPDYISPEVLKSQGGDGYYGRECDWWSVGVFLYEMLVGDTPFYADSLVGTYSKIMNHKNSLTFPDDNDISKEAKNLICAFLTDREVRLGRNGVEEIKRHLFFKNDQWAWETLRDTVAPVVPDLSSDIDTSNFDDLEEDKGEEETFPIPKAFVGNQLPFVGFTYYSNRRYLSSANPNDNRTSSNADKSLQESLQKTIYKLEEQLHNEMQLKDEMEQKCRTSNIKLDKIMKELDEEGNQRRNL

Consider `CC(O)Cn1cc(C(=O)[C@@H]2COc3ccc(Cl)cc3C2)c2ccc(-c3c[nH]nc3F)cc21` (stereo partly drawn) [Compound 1-41], for which the IC50 in assay [1] was 0.011 to 0.05 µM; in assay [2], less than 0.01 µM.
On to `COc1n[nH]cc1-c1ccc2c(C(=O)[C@@H]3COc4ccc(Cl)cc4C3)cn(CC(C)O)c2c1` (stereo partly drawn) [Compound 1-42], for which the IC50 in assay [1] is 0.011 to 0.05 µM; in assay [2] it was less than 0.01 µM.
In the case of `COc1n[nH]cc1-c1ccc2c(C(=O)C3COc4ccc(Cl)cc4C3)cn(C[C@H](C)O)c2c1` (stereo partly drawn) [Compound 1-43], the IC50 in assay [1] fell in the range of 0.051 to 0.5 µM; in assay [2] it was 0.011 to 0.05 µM.
For the molecule `COc1n[nH]cc1-c1ccc2c(C(=O)C3COc4ccc(Cl)cc4C3)cn(C[C@@H](C)O)c2c1` (stereo partly drawn) [Compound 1-44], the IC50 in assay [1] and in assay [2] was 0.011 to 0.05 µM each time.
Consider `C[C@H](O)Cn1cc(C(=O)C2COc3ccc(Cl)cc3C2)c2cnc(-c3cn[nH]c3Cl)nc21` (stereo partly drawn) [Compound 1-45], for which the figures for the IC50 in assay [1] and in assay [2] were 0.011 to 0.05 µM and less than 0.01 µM, respectively.
With `C[C@H](O)Cn1cc(C(=O)[C@@H]2COc3ccc(Cl)cc3C2)c2cnc(-c3cn[nH]c3Cl)nc21` [Compound 1-46], the IC50 in assay [1] and in assay [2] was less than 0.01 µM throughout.
Consider `C[C@@H](O)Cn1cc(C(=O)C2COc3ccc(Cl)cc3C2)c2cnc(-c3cn[nH]c3F)nc21` (stereo partly drawn) [Compound 1-47], for which the figures for the IC50 in assay [1] and in assay [2] were 0.011 to 0.05 µM and less than 0.01 µM, respectively.
The matching figures for `C[C@@H](O)Cn1cc(C(=O)C2COc3ccc(F)cc3C2)c2cnc(-c3cn[nH]c3F)nc21` (stereo partly drawn) [Compound 1-48]: less than 0.01 µM and less than 0.01 µM.
The corresponding values for `C[C@@H](O)Cn1cc(C(=O)[C@@H]2COc3ccc(F)cc3C2)c2cnc(-c3cn[nH]c3F)nc21` [Compound 1-49] are less than 0.01 µM and less than 0.01 µM.
Turning to `C[C@@H](O)Cn1cc(C(=O)[C@@H]2COc3ccc(F)cc3C2)c2cnc(-c3cn[nH]c3F)nc21` [Compound 1-50], the IC50 in assay [1] and in assay [2] was less than 0.01 µM throughout.
On to `C[C@@H](O)Cn1cc(C(=O)[C@@H]2COc3ccc(F)cc3C2)c2cnc(-c3cn[nH]c3F)nc21` [Compound 1-51], for which the IC50 in assay [1] and in assay [2] was less than 0.01 µM each time.
As for `COc1[nH]ncc1-c1ncc2c(C(=O)C3COc4ccc(F)cc4C3)cn(CC(C)(C)O)c2n1` (stereo not drawn) [Compound 1-52], the IC50 in assay [1] lay in the range of 0.051 to 0.5 µM; in assay [2] it was 0.011 to 0.05 µM.
As for `COc1[nH]ncc1-c1ncc2c(C(=O)C3COc4ccc(Cl)cc4C3)cn(C[C@H](C)O)c2n1` (stereo partly drawn) [Compound 1-53], the IC50 fell in the range of 0.051 to 0.5 µM in assay [1] and 0.011 to 0.05 µM in assay [2].
With `CC(C)(O)Cn1cc(C(=O)C2COc3ccc(Cl)cc3C2)c2cnc(-c3cn[nH]c3F)nc21` (stereo not drawn) [Compound 1-54], the results for the IC50 in assay [1] and in assay [2] were 0.011 to 0.05 µM and less than 0.01 µM, respectively.
In the case of `CC(C)(O)Cn1cc(C(=O)[C@@H]2COc3ccc(Cl)cc3C2)c2cnc(-c3cn[nH]c3F)nc21` [Compound 1-55], the IC50 in assay [1] and in assay [2] was less than 0.01 µM each time.
As for `CC(C)(O)Cn1cc(C(=O)C2COc3ccc(Cl)cc3C2)c2cnc(-c3cn[nH]c3Cl)nc21` (stereo not drawn) [Compound 1-57], the IC50 in assay [1] and in assay [2] was less than 0.01 µM in each case.
Consider `COc1[nH]ncc1-c1ncc2c(C(=O)C3COc4ccc(Cl)cc4C3)cn(CC(C)(C)O)c2n1` (stereo not drawn) [Compound 1-58], for which the results for the IC50 in assay [1] and in assay [2] were 0.011 to 0.05 µM and less than 0.01 µM, respectively.
With `COc1n[nH]cc1-c1cc2c(cn1)c(C(=O)C1COc3ccc(Cl)cc3C1)cn2CCO` (stereo not drawn) [Compound 1-59, hydrochloride], the IC50 is 0.051 to 0.5 µM in assay [1] (hydrochloride) and 0.011 to 0.05 µM in assay [2] (hydrochloride).
Regarding `COc1[nH]ncc1-c1cc2c(cn1)c(C(=O)C1COc3ccc(Cl)cc3C1)cn2CCN(C)C` (stereo not drawn) [Compound 1-60, (6-chlorochroman-3-yl)(1-(2-(dimethylamino)ethyl)-6-(5-methoxy-1H-pyrazol-4-yl)-1H-pyrrolo[3,2-c]pyridin-3-yl)methanone metanesulfonic acid], the IC50 in assay [1] and in assay [2] was less than 0.01 µM each time.
On to `O=C(c1cn(CCO)c2cc(-c3cn[nH]c3)ccc12)C1COc2ccccc2O1` (stereo not drawn) [Compound 2-1, 2,3-Dihydro-1,4-benzodioxin-3-yl-[1-(2-hydroxyethyl)-6-(1H-pyrazol-4-yl)indol-3-yl]methanone], for which the IC50 in assay [1] and in assay [2] was less than 0.01 µM throughout.
In the case of `O=C(c1cn(CCO)c2cc(-c3cn[nH]c3)ccc12)C1COc2ccc(Cl)cc2C1` (stereo not drawn) [Compound 2-2, (6-Chlorochroman-3-yl)-[1-(2-hydroxyethyl)-6-(1H-pyrazol-4-yl)indol-3-yl]methanone], the IC50 in assay [1] and in assay [2] was less than 0.01 µM each time.
As to `O=C(c1cn(CCO)c2cc(-c3c[nH]c4ncccc34)ccc12)C1COc2ccccc2O1` (stereo not drawn) [Compound 2-3], the IC50 was in the range of 0.051 to 0.5 µM in assay [1] and 0.011 to 0.05 µM in assay [2].
Regarding `O=C(c1cn(CCO)c2cc(-c3c[nH]nc3Cl)ccc12)C1COc2ccccc2O1` (stereo not drawn) [Compound 2-4], the 50% inhibitory concentration (IC50) in assay [1] and in assay [2] was less than 0.01 µM in each case.
Regarding `O=C(c1cn(CCO)c2cc(-c3c[nH]c4ncccc34)ccc12)C1COc2ccccc2C1` (stereo not drawn) [Compound 2-5], the IC50 lay in the range of 0.051 to 0.5 µM in assay [1] and 0.011 to 0.05 µM in assay [2].
In the case of `O=C(c1cn(CCO)c2cc(-c3c[nH]nc3Cl)ccc12)C1COc2ccccc2C1` (stereo not drawn) [Compound 2-6], the IC50 in assay [1] is 0.011 to 0.05 µM; in assay [2] it was less than 0.01 µM.
The corresponding values for `O=C(c1cn(CCO)c2cc(-c3cn[nH]c3)ccc12)C1COc2ccc(F)cc2C1` (stereo not drawn) [Compound 2-7] are less than 0.01 µM and less than 0.01 µM.
In the case of `COc1ccc2c(c1)OCC(C(=O)c1cn(CCO)c3cc(-c4cn[nH]c4)ccc13)C2` (stereo not drawn) [Compound 2-8], the IC50 in assay [1] and in assay [2] was 0.051 to 0.5 µM each time.
Turning to `O=C(c1cn(CCO)c2cc(-c3cn[nH]c3)ccc12)C1COc2ccc(F)cc2O1` (stereo not drawn) [Compound 2-9], the results for the IC50 in assay [1] and in assay [2] were 0.011 to 0.05 µM and less than 0.01 µM, respectively.
The matching figures for `O=C(c1cn(CCO)c2cc(-c3cn[nH]c3)ccc12)C1COc2cc(Cl)ccc2O1` (stereo not drawn) [Compound 2-10]: 0.051 to 0.5 µM and 0.011 to 0.05 µM.
The corresponding values for `O=C(c1cn(CCO)c2cc(-c3cn[nH]c3)ccc12)C1COc2cc(F)ccc2O1` (stereo not drawn) [Compound 2-11] are 0.051 to 0.5 µM and less than 0.01 µM.
As for `O=C(c1cn(CCO)c2cc(-c3cn[nH]c3)ccc12)C1COc2cc(Cl)c(Cl)cc2O1` (stereo not drawn) [Compound 2-12], the IC50 in assay [1] and in assay [2] was 0.051 to 0.5 µM throughout.
With `O=C(c1cn(CCO)c2cc(-c3cn[nH]c3)ccc12)C1COc2ccc(Cl)cc2O1` (stereo not drawn) [Compound 2-13], the values for the IC50 in assay [1] and in assay [2] were 0.051 to 0.5 µM and 0.011 to 0.05 µM, respectively.
On to `COc1ccc2c(c1)OC(C(=O)c1cn(CCO)c3cc(-c4cn[nH]c4)ccc13)CO2` (stereo not drawn) [Compound 2-14], for which the IC50 in assay [1] was 0.011 to 0.05 µM; in assay [2], less than 0.01 µM.
In the case of `COc1ccc2c(c1)CC(C(=O)c1cn(CCO)c3cc(-c4c[nH]nc4Cl)ccc13)CO2` (stereo not drawn) [Compound 2-15], the IC50 in assay [1] and in assay [2] was less than 0.01 µM throughout.
Consider `O=C(c1cn(CCO)c2cc(-c3c[nH]nc3F)ccc12)C1COc2ccc(Cl)cc2C1` (stereo not drawn) [Compound 2-16], for which the IC50 was 0.011 to 0.05 µM in assay [1] and less than 0.01 µM in assay [2].
In the case of `O=C(c1cn(CCO)c2cc(-c3cn[nH]c3)ccc12)C1COc2ccccc2C1` (stereo not drawn) [Compound 2-23], the IC50 in assay [1] and in assay [2] was 0.011 to 0.05 µM throughout.
